Among the data in US11071735B2, “Treatment of inflammatory conditions and autoimmune diseases with glucose uptake inhibitors” (Kadmon Corporation, LLC, priority 2017, dated 2021) are IC50 values, retold here.

Type in all cases: cell-based
Assay [1] deals with GLUT. As to the kind of experiment: glycolysis assay (oligomycin + Cell Titer-Glo ATP readout) in HT1080 cells. The note with it: 10 μM oligomycin, one hour, glycolytically-derived ATP. The source says:
The combination of inhibitors of both oxidative phosphorylation and glycolysis synergistically suppress cellular ATP levels. Therefore, our assay utilizes the combination of our glucose uptake inhibitors with oligomycin, a well-characterized inhibitor of ATP synthase. Because oligomycin inhibits ATP derived from oxidative phosphorylation, any remaining ATP production is derived from glycolysis. By reading out cellular ATP levels using the Promega
Titer Glo kit, we can assess the extent of glycolysis inhibition by our glucose uptake inhibitors. Using this experimental set-up in HT1080 cancer cells, we determined the IC50 of glycolysis inhibition for the compounds.
(§1) Determination of glucose uptake/GLUT activity (glycolysis assay): HT1080 cells, DLD1 cells (WT and GLUT1−/−) and human CD4+ T cells were plated in 96-well plates. Cells were exposed to the combination of 10 μM Oligomycin (to block mitochondrial-derived ATP) and the glucose uptake inhibitors disclosed herein for one-hour, after which glycolytically-derived ATP was measured with the Cell Titer-Glo assay kit (Promega). Dose-response curves of the glucose uptake inhibitors disclosed herein were used to determine the IC50 for GLUT activity.
(In general: In ATP-based viability assays light output follows the ATP content of the culture.)

Assay [2] has as its target T1, GLUT1 (Homo sapiens, UniProt P11166).
T1 construct: endogenous in cells; host or cells: DLD1 WT cancer cells
T1 sequence (P11166 1-492): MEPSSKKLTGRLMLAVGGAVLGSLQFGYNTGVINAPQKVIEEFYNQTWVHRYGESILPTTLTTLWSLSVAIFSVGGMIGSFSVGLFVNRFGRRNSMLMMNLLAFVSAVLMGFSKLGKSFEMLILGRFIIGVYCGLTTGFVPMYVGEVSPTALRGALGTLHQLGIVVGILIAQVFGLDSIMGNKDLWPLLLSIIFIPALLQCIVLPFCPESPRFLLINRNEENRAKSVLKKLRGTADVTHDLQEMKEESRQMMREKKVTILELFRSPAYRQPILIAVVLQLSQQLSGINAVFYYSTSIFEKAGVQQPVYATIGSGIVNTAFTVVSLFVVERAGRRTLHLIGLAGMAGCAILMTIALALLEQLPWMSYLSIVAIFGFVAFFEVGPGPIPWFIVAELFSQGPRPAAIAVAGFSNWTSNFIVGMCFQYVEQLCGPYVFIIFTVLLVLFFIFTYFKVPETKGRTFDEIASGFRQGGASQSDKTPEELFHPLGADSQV
As to the kind of experiment: glycolysis assay in DLD1 WT cells (rely on GLUT1). The note with it: DLD1-WT cells; 10 μM oligomycin, one hour. Here is the method:
(§2) Cells were treated with GLUT inhibitors plus oligomycin and subsequently ATP levels were determined using Cell Titer Glo. […] FIG. 1B reports the IC50 of glycolysis inhibition for selected compounds.
(§3) Accordingly, we have investigated the use of inhibitors of GLUT transporters against activated pro-inflammatory immune cells, including but not limited to activated human CD4+ T cells. In order to understand what GLUT transporters are required to sustain glycolysis in activated T cells, we first utilized the syngeneic cancer cell lines DLD1 WT and DLD GLUT1−/− that rely on GLUT1 and GLUT3 expression, respectively, for glucose transport. Within this system, we have identified small molecules that simultaneously have the property of inhibiting both GLUT1 and GLUT3 mediated glucose transport. In addition, we have confirmed the GLUT1-selective nature of a published small molecule inhibitor of GLUT1 (Chem Med Chem. 2016 Oct. 19; 11(20):2261-2271).
as §1

Assay [3] addresses T2, GLUT3 (Homo sapiens, UniProt P11169).
T2 construct: endogenous in cells; host or cells: DLD1 GLUT1−/− (knock-out) cancer cells
T2 sequence (P11169 1-496): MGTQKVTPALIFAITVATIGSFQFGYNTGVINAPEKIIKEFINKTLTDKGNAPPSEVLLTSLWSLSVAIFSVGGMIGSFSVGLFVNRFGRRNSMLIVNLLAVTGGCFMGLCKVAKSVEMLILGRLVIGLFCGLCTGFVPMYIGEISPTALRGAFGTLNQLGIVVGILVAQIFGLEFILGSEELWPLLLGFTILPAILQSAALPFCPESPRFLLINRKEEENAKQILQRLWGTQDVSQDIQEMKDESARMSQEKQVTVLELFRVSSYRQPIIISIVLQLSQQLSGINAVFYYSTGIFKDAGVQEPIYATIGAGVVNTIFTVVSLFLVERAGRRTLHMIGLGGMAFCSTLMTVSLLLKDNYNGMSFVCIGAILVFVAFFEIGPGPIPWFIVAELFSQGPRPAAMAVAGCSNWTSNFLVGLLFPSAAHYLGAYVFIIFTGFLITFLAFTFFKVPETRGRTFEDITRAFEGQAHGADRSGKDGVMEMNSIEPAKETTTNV
Put plainly: glycolysis assay in DLD1 GLUT1−/− cells (rely on GLUT3). The note with it: DLD1-KO (GLUT1−/−) cells; 10 μM oligomycin, one hour. Here is the method:
as §2, §3, §1

What is called IC50 is the concentration at which inhibition is half-maximal. For the molecule `COCCOc1ccc2nc(-c3cccc(OCC(=O)NC(C)(C)C)c3)nc(Nc3ccc(-c4cn[nH]c4)cc3)c2c1` [Ex. 39, 2-(3-(4-((4-(1H-Pyrazol-4-yl)phenyl)amino)-6-(2-methoxyethoxy)quinazolin-2-yl)phenoxy)-N-(tert-butyl)acetamide], the values for the IC50 in assay [1], in assay [2] and in assay [3] were 34.1 nM, 40.6 nM and 34.2 nM, respectively.

On to `CC(C)NC(=O)COc1cccc(-c2nc(Nc3ccc(-c4cn[nH]c4)cc3)c3cc(OCCF)ccc3n2)c1` [Ex. 40, 2-(3-(4-((4-(1H-Pyrazol-4-yl)phenyl)amino)-6-(2-fluoroethoxy)quinazolin-2-yl)phenoxy)-N-isopropylacetamide], for which the IC50 in assay [1] was determined as 98 nM; in assay [2], 160 nM; in assay [3] it was 68.3 nM.

Regarding `CC(C)NC(=O)COc1cccc(-c2nc(Nc3ccc(-c4cn[nH]c4)cc3)c3cc(OC(C)C)ccc3n2)c1` [Ex. 41, 2-(3-(4-((4-(1H-pyrazol-4-yl)phenyl)amino)-6-isopropoxyquinazolin-2-yl)phenoxy)-N-isopropylacetamide], the results for the IC50 in assay [1], in assay [2] and in assay [3] were 107 nM, 48.8 nM and 191 nM, respectively.

Take `CCC(C)NC(=O)COc1cccc(-c2nc(Nc3ccc(-c4cn[nH]c4)cc3)c3cc(OCCOC)ccc3n2)c1` (stereo not drawn) [Ex. 42, 2-(3-(4-((4-(1H-pyrazol-4-yl)phenyl)amino)-6-(2-methoxyethoxy)quinazolin-2-yl)phenoxy)-N-(sec-butyl)acetamide]: the IC50 was 31.2 nM in assay [1], 30.7 nM in assay [2] and 41.6 nM in assay [3].

For `CCC(C)NC(=O)COc1cccc(-c2nc(Nc3ccc(-c4cn[nH]c4)cc3)c3cc(OCCF)ccc3n2)c1` (stereo not drawn) [Ex. 43, 2-(3-(4-((4-(1H-pyrazol-4-yl)phenyl)amino)-6-(2-fluoroethoxy)quinazolin-2-yl)phenoxy)-N-(sec-butyl)acetamide], the IC50 in assay [1] is 46 nM; in assay [2] it was 34.4 nM; in assay [3] it was 58.9 nM.

For `CCC(C)NC(=O)COc1cccc(-c2nc(Nc3ccc(-c4cn[nH]c4)cc3)c3cc(F)ccc3n2)c1` (stereo not drawn) [Ex. 44, 2-(3-(4-((4-(1H-pyrazol-4-yl)phenyl)amino)-6-fluoroquinazolin-2-yl)phenoxy)-N-(sec-butyl)acetamide], the IC50 in assay [1] worked out at 123 nM; in assay [2], 91.2 nM; in assay [3], 159 nM.

On to `CC[C@H](C)NC(=O)COc1cccc(-c2nc(Nc3ccc(-c4cn[nH]c4)cc3)c3cc(OCCOC)ccc3n2)c1` [Ex. 45, (S)-2-(3-(4-((4-(1H-pyrazol-4-yl)phenyl)amino)-6-(2-methoxyethoxy)quinazolin-2-yl)phenoxy)-N-(sec-butyl)acetamide], for which the IC50 in assay [1] stood at 25.1 nM; in assay [2], 25.2 nM; in assay [3], 40.6 nM.

As to `CC[C@H](C)NC(=O)COc1cccc(-c2nc(Nc3ccc(-c4cn[nH]c4)cc3)c3cc(OCCF)ccc3n2)c1` [Ex. 46, (S)-2-(3-(4-((4-(1H-pyrazol-4-yl)phenyl)amino)-6-(2-fluoroethoxy)quinazolin-2-yl)phenoxy)-N-(sec-butyl)acetamide], the IC50 turned out to be 37.1 nM in assay [1], 34.8 nM in assay [2] and 87 nM in assay [3].

On to `CC[C@H](C)NC(=O)COc1cccc(-c2nc(Nc3ccc(-c4cn[nH]c4)cc3)c3cc(F)ccc3n2)c1` [Ex. 47, (S)-2-(3-(4-((4-(1H-pyrazol-4-yl)phenyl)amino)-6-fluoroquinazolin-2-yl)phenoxy)-N-(sec-butyl)acetamide], for which the IC50 in assay [1] was found to be 111 nM; in assay [2], 94.9 nM; in assay [3] it was 133 nM.

As to `CC[C@H](C)NC(=O)COc1cccc(-c2nc(Nc3ccc(-c4cn[nH]c4)cc3)c3cc(OC)ccc3n2)c1` [Ex. 48, (S)-2-(3-(4-((4-(1H-pyrazol-4-yl)phenyl)amino)-6-methoxyquinazolin-2-yl)phenoxy)-N-(sec-butyl)acetamide], the figures for the IC50 in assay [1], in assay [2] and in assay [3] were 81.5 nM, 71.6 nM and 110 nM, respectively.

For `CC[C@@H](C)NC(=O)COc1cccc(-c2nc(Nc3ccc(-c4cn[nH]c4)cc3)c3cc(OCCOC)ccc3n2)c1` [Ex. 49, (R)-2-(3-(4-((4-(1H-pyrazol-4-yl)phenyl)amino)-6-(2-methoxyethoxy)quinazolin-2-yl)phenoxy)-N-(sec-butyl)acetamide], the IC50 in assay [1] is 30.7 nM; in assay [2] it was 30.3 nM; in assay [3], 50.9 nM.

Regarding `CC[C@@H](C)NC(=O)COc1cccc(-c2nc(Nc3ccc(-c4cn[nH]c4)cc3)c3cc(OCCF)ccc3n2)c1` [Ex. 50, (R)-2-(3-(4-((4-(1H-pyrazol-4-yl)phenyl)amino)-6-(2-fluoroethoxy)quinazolin-2-yl)phenoxy)-N-(sec-butyl)acetamide], the IC50 worked out at 44.7 nM in assay [1], 38.5 nM in assay [2] and 72.1 nM in assay [3].

Take `CC[C@@H](C)NC(=O)COc1cccc(-c2nc(Nc3ccc(-c4cn[nH]c4)cc3)c3cc(F)ccc3n2)c1` [Ex. 51, (R)-2-(3-(4-((4-(1H-pyrazol-4-yl)phenyl)amino)-6-fluoroquinazolin-2-yl)phenoxy)-N-(sec-butyl)acetamide]: the IC50 in assay [1] was 113 nM; in assay [2], 106 nM; in assay [3] it was 125 nM.

Take `CC[C@@H](C)NC(=O)COc1cccc(-c2nc(Nc3ccc(-c4cn[nH]c4)cc3)c3cc(OC)ccc3n2)c1` [Ex. 52, (R)-2-(3-(4-((4-(1H-pyrazol-4-yl)phenyl)amino)-6-methoxyquinazolin-2-yl)phenoxy)-N-(sec-butyl)acetamide]: the results for the IC50 in assay [1], in assay [2] and in assay [3] were 92.1 nM, 81.6 nM and 118 nM, respectively.

For `CCC(C)NC(=O)COc1cccc(-c2nc(Nc3ccc(-c4cn[nH]c4)cc3)c3ccc(F)cc3n2)c1` (stereo not drawn) [Ex. 53, 2-(3-(4-((4-(1H-pyrazol-4-yl)phenyl)amino)-7-fluoroquinazolin-2-yl)phenoxy)-N-(sec-butyl)acetamide], the IC50 in assay [1] worked out at 283 nM; in assay [2] it was 222 nM; in assay [3], 271 nM.

On to `CC[C@H](C)NC(=O)COc1cccc(-c2nc(Nc3ccc(-c4cn[nH]c4)cc3)c3ccc(F)cc3n2)c1` [Ex. 54, (S)-2-(3-(4-((4-(1H-pyrazol-4-yl)phenyl)amino)-7-fluoroquinazolin-2-yl)phenoxy)-N-(sec-butyl)acetamide], for which the results for the IC50 in assay [1], in assay [2] and in assay [3] were 196 nM, 146 nM and 290 nM, respectively.

For `CC[C@@H](C)NC(=O)COc1cccc(-c2nc(Nc3ccc(-c4cn[nH]c4)cc3)c3ccc(F)cc3n2)c1` [Ex. 55, (R)-2-(3-(4-((4-(1H-pyrazol-4-yl)phenyl)amino)-7-fluoroquinazolin-2-yl)phenoxy)-N-(sec-butyl)acetamide], the figures for the concentration for half-maximal inhibition (IC50) in assay [1], in assay [2] and in assay [3] were 190 nM, 192 nM and 238 nM, respectively.
